Data reported in ChEMBL document CHEMBL4316623, “Phosphonodiamidate prodrugs of N-alkoxy analogs of a fosmidomycin surrogate as antimalarial and antitubercular agents” (Bioorg Med Chem Lett, 2019).
Active and inactive are the calls of the source. The calls are words filed in the database; no cut-off is given here.

Legend:
[1] = test system: Plasmodium falciparum; assay: Antimalarial activity against Chloroquine-resistant Plasmodium falciparum K1 measured after 72 hrs by malstat/NBT dye based assay; assay type: functional, organism-based; details: K1, 72 h
[2] = test system: Mycobacterium tuberculosis; assay: Antitubercular activity against Mycobacterium tuberculosis H37Rv up to 50 uM measured after 7 days by resazurin dye based colometric microtiter assay; assay type: functional, organism-based
[3] = Cytotoxicity against human MRC5 cells assessed as reduction in cell viability measured after 24 hrs by resazurin dye based fluorimetric assay
[4] = Selectivity index, ratio of CC50 for human MRC5 cells to IC50 for Chloroquine-resistant Plasmodium falciparum K1; assay type: toxicity; details: read-out: Ratio CC50/IC50
[5] = Oral bioavailability in human; assay type: ADME, organism-based; details: in vivo
[6] = Half life in human at 500 mg, po; assay type: ADME; details: in vivo

Row | Structure (SMILES) | IC50 [1] [µM] | Activity [2] | CC50 at 24 h [3] [µM] | selectivity ratio [4] | bioavailability [5] [%] | half-life [6] [h]
1 | CCOC(=O)[C@H](CC(C)C)NP(=O)(CCCC(=O)N(C)OCCCCc1ccccc1)N[C@@H](CC(C)C)C(=O)OCC | 6.72 | inactive | 7.23 | 1.1 |  | 
2 | CCOC(=O)[C@H](CC(C)C)NP(=O)(CCCC(=O)N(C)OCc1ccc2ccccc2c1)N[C@@H](CC(C)C)C(=O)OCC | 6.22 | inactive | 5.47 | 0.88 |  | 
3 | CCOC(=O)[C@H](CC(C)C)NP(=O)(CCCC(=O)N(C)OCc1ccccc1)N[C@@H](CC(C)C)C(=O)OCC | 4.22 | inactive | > 64 | > 15 |  | 
4 | O=CN(O)CCCP(=O)([O-])O.[Na+] [FOSMIDOMYCIN SODIUM] |  |  |  |  | 20 to 40 | 1.87
5 | CCOC(=O)[C@H](CC(C)C)NP(=O)(CCCC(=O)N(C)OCc1ccc(-c2ccccc2)cc1)N[C@@H](CC(C)C)C(=O)OCC | 5.25 | inactive | 5.94 | 1.1 |  | 
6 | CCOC(=O)[C@H](CC(C)C)NP(=O)(CCCC(=O)N(C)OCc1ccc(Cl)cc1)N[C@@H](CC(C)C)C(=O)OCC | 7.12 | inactive | 18.4 | 2.6 |  | 
7 | CCOC(=O)[C@H](CC(C)C)NP(=O)(CCCC(=O)N(C)OCc1ccc(C(C)C)cc1)N[C@@H](CC(C)C)C(=O)OCC | 5.28 | inactive | 7.22 | 1.4 |  | 
8 | CCOC(=O)[C@H](CC(C)C)NP(=O)(CCCC(=O)N(C)O)N[C@@H](CC(C)C)C(=O)OCC | 4.83 | inactive | > 64 | > 20 |  | 
9 | CCOC(=O)[C@H](CC(C)C)NP(=O)(CCCC(=O)N(C)OCCCc1ccccc1)N[C@@H](CC(C)C)C(=O)OCC | 8.93 | inactive | 23.1 | 2.6 |  | 
